Tested on: COVID-19 patients with severe pneumonia
Assay: Phase 2 clinical study of Reparixin plus standard of care in COVID-19 patients with severe pneumonia
Assay type: in vivo, human
Details: for Composite endpoint, first occurrence (% patients) / Composite endpoint, first occurrence (n patients): oral tablets 1200 mg TID plus standard of care
Excerpt: A phase 2 clinical study has been conducted to assess efficacy and safety of Reparixin in COVID-19 patients with severe pneumonia.
The patients participating to the trial satisfied the following inclusion criteria: • a) at least one of the following: • respiratory distress, RR≥30 breaths/min without oxygen; • Partial arterial oxygen pressure (PaO2)/Fraction of inspiration O2 (FiO2)>100<300 mmHg (1 mmHg=0.133 kPa). • b) chest imaging confirming lung involvement and inflammation. • c) inflammatory status as documented by at least one of the following: Lactate dehydrogenase (LDH)>normal range, C-reactive protein (CRP)≥100 mg/L or IL-6≥40 pg/mL, serum ferritin ≥900 ng/mL, XDP >20 mcg/mL.
Fourteen patients received the standard of care treatment only (Control group).
Thirty-two patients received Reparixin oral tablets 1200 mg TID in addition to the standard of care treatment (Reparixin group) for a maximum of 21 days.
In both groups, where necessary due to the presence of concomitant pathologies (diabetes, hypertension, cancer etc. . . ), the patients also continued to receive specific treatments for these.
The first occurrence of the composite primary endpoint (at least one of the following events: death, supplemental oxygen requirement, invasive mechanical ventilation use, admission to ICU, and use of a rescue medication for any reason) was evaluated in all the patients and the data obtained are shown in Table 2 below.
The data collected in the clinical trial were analyzed by means of the Kaplan-Meier methodology and the log-rank test was used to test for differences between treatment groups. The Kaplan-Meier method is a well-established method to analyse the patterns of events over time to estimate the probability of being free of event. The form of the estimated “survival curves” is a step function, with steps down occurring at those time points where there are events. As patients have events or are censored (patients who exit the analyses for other reasons than events) the number of patients remaining evaluable in the trial in each of the treatment groups is diminishing. The probabilities of being free of event are, as a consequence, estimated from fewer and fewer patients as time progresses. To give information in relation to this, the number of patients at risk at various time points are provided: these are the numbers of patients still at risk of having their first occurrence of the composite endpoint.

[1] = Reparixin plus standard of care vs standard of care only

For `CC(C)Cc1ccc([C@@H](C)C(=O)NS(C)(=O)=O)cc1` [Reparixin, R-(-)-2-(4-isobutylphenyl)propionyl methansulfonamide], the “Composite endpoint, first occurrence (% patients)” value (Day 1, 32 evaluable patients) was 9.4%, the “Composite endpoint, first occurrence (n patients)” value (Day 1, 32 evaluable patients, composite = death, supplemental oxygen requirement, invasive mechanical ventilation use, admission to ICU, or rescue medication) was 3 and the “Composite endpoint, first occurrence (% patients)” value (Day 2, 27 evaluable patients) was 7.4%. The “Composite endpoint, first occurrence (n patients)” value (Day 2, 27 evaluable patients) was 2, the “Time of recovery of patients” value (Reparixin group compared to the Control group) was “significantly reduced” and the “Freedom from composite event over time (Kaplan-Meier, FIG. 1)” value (Reparixin group vs Control group (standard of care only), log-rank test p-value 0.0031) was “statistically significant higher freedom from event”. The “Progression to more severe respiratory disease” value (Reparixin group vs Control group, shown by incidence of the composite endpoints) was “prevents the progression to more severe respiratory disease”, the “Days of oxygen use” value [1] was “fewer days of oxygen use” and the “Duration of mechanical ventilation” value [1] was “shorter subsequent duration of mechanical ventilation”. The Respiratory function (patients in the Reparixin group) was “improved respiratory function”.

Reference: patent publication US12636268B2, “CXCL8 inhibitors for use in the treatment of COVID-19” (Dompe' Farmaceutici SPA, priority 2020, dated 2026)
